Here are results for two compounds from ChEMBL document CHEMBL1144117, “Two new cytotoxic carbonimidic dichlorides from the nudibranch Reticulidia fungia” (J Nat Prod, 1999).

In general, IC50 refers to the point on the concentration scale where inhibition reaches its midpoint. A high value points to lower potency.

One assay relates to KB. As to the kind of experiment: Cytotoxicity against human KB cells after 72 hrs by MTT assay. It is filed as functional, cell-based. A general note: Tetrazolium assays rely on reduction of a dye to a coloured formazan, in cell work by metabolically active cells.
Another assay relates to L1210. As to the kind of experiment: Cytotoxicity against mouse L1210 cells after 72 hrs by MTT assay. The note with it: L1210, 72 h. The format is functional, cell-based.

Converted amounts (≈) assume the structure as drawn.

`CC1(C)[C@@H](Cl)[C@H](O)C[C@]2(C)C=C(/C=C/N=C(Cl)Cl)CC[C@@H]12` [RETICULIDIN A]: the IC50 in the assay with KB is 0.41 µg/mL (≈ 1.17 µM); in the assay on L1210, 0.59 µg/mL (≈ 1.68 µM).
On to `CC1(C)[C@@H](Cl)[C@@H](O)C[C@]2(C)CC(/C=C/N=C(Cl)Cl)=CC[C@@H]12` [RETICULIDIN B], for which the 50% inhibitory concentration (IC50) worked out at 0.42 µg/mL (≈ 1.2 µM) in the assay on KB and 0.11 µg/mL (≈ 0.314 µM) in the assay with L1210.
